The source made the active and inactive calls. No cut-off for these calls is given here.
Key:
[1] = Antiproliferative activity against human ANGM-CSS cells assessed as inhibition of cell growth after 144 hrs by WST1 assay; format: functional
[2] = target: Mitogen-activated protein kinase 1 (Homo sapiens) (UniProt P28482); assay: Inhibition of ERK2 (unknown origin) at 1 uM by selectscreen kinase profiling assay in presence of ATP
[3] = target: CDK9/cyclin T1 (Homo sapiens) (UniProt O60563+P50750); assay: Inhibition of CDK9/cyclin T1 (unknown origin) at 1 uM by selectscreen kinase profiling assay in presence of ATP; format: protein-complex assay
[4] = target: T1, Cyclin-dependent kinase 5/CDK5 activator 1 (Homo sapiens) (UniProt Q00535+Q15078); assay: Inhibition of CDK5/p35 (unknown origin) at 1 uM by selectscreen kinase profiling assay in presence of ATP; format: protein-complex assay
[5] = Antiproliferative activity against human U118MG cells assessed as inhibition of cell growth after 72 hrs by WST1 assay; format: functional; details: U-118-MG
[6] = target: Casein kinase II subunit alpha' (Homo sapiens) (UniProt P19784); assay: Inhibition of CK2alpha2 (unknown origin) at 1 uM by selectscreen kinase profiling assay in presence of ATP
[7] = target: Mitogen-activated protein kinase 14 (Homo sapiens) (UniProt Q16539); assay: Inhibition of p38 alpha (unknown origin) at 1 uM by selectscreen kinase profiling assay in presence of ATP
[8] = target: Serine/threonine-protein kinase Chk1 (Homo sapiens, UniProt O14757); assay: Inhibition of CHK1 (unknown origin) in presence of 10 uM ATP incubated for 1 hr by Z'Lyte assay
[9] = target: Calcium/calmodulin-dependent protein kinase type II subunit alpha (Homo sapiens) (UniProt Q9UQM7); assay: Inhibition of CAMK2alpha (unknown origin) at 1 uM by selectscreen kinase profiling assay in presence of ATP
ANGM-CSS [10] = assay: Induction of human GSC differentiation derived from ANGM-CSS cells assessed as up regulation of GFAP mRNA expression at 1 uM after 7 days by RT-PCR analysis; format: functional, cell-based
[11] = Induction of apoptosis in human GSC derived from ANGM-CSS cells assessed as live cells at 1 uM after 7 days by annexin V-FITC/7-AAD dual staining based cell analysis (reference value: 91.88%); format: functional
[12] = Cell cycle arrest in human ANGM-CSS cells assessed as accumulation at G2/M phase at 1 uM after 7 days by based fluorescent reagent based cell analysis (reference value: 23.8%); format: functional
U-118-MG = assay: Antiproliferative activity against human U118MG cells assessed as inhibition of cell growth after 72 to 144 hrs by WST1 assay; format: functional, cell-based
[13] = target: T2, 3-phosphoinositide-dependent protein kinase 1 (Homo sapiens, UniProt O15530); assay: Inhibition of PDK1 (unknown origin) incubated for 1 hr by Z'Lyte assay
T2 sequence (O15530 whole entry): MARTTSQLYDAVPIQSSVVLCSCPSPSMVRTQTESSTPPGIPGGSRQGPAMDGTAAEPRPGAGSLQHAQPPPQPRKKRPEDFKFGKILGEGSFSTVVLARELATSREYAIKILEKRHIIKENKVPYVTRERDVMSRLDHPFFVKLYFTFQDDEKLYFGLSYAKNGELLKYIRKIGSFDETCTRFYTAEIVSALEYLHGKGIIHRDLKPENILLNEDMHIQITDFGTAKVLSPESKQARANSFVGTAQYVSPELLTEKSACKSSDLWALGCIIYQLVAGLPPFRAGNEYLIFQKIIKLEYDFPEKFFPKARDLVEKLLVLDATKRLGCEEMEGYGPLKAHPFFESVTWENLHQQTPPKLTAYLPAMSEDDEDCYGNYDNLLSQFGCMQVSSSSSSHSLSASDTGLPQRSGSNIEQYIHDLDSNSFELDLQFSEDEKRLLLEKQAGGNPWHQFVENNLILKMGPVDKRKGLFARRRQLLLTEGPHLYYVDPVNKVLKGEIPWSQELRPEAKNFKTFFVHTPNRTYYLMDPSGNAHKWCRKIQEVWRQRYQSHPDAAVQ

[14] = target: RAC-alpha serine/threonine-protein kinase (Homo sapiens) (UniProt P31749); assay: Inhibition of recombinant Akt1 (unknown origin) incubated for 1 hr by Z'Lyte assay
[15] = target: AMP-activated protein kinase, AMPK (Homo sapiens) (UniProt P54646+O43741+P54619+Q9UGJ0+Q9Y478+Q13131+Q9UGI9); assay: Inhibition of AMPK A2/B1/G1 (unknown origin) at 1 uM by selectscreen kinase profiling assay in presence of ATP; format: protein-complex assay
[16] = target: Tyrosine-protein kinase ABL1 (Homo sapiens) (UniProt P00519); assay: Inhibition of ABL1 (unknown origin) at 1 uM by selectscreen kinase profiling assay in presence of ATP
ANGM-CSS [17] = assay: Induction of human GSC differentiation derived from ANGM-CSS cells assessed as up regulation of MAP2 mRNA expression at 1 uM after 7 days by RT-PCR analysis; format: functional, cell-based
[18] = target: Dual specificity protein kinase CLK1 (Homo sapiens) (UniProt P49759); assay: Inhibition of CLK1 (unknown origin) at 1 uM by selectscreen kinase profiling assay in presence of ATP
[19] = system: RAF proto-oncogene serine/threonine-protein kinase (Homo sapiens), P04049 [Y340D,Y341D]; assay: Inhibition of RAF1 Y340D/Y341D double mutant (unknown origin) at 1 uM by selectscreen kinase profiling assay in presence of ATP
[20] = Induction of apoptosis in human ANGM-CSS cells assessed as late apoptotic cells at 1 uM after 7 days by annexin V-FITC/7-AAD dual staining based cell analysis (reference value: 3.39%); format: functional
[21] = Induction of apoptosis in human ANGM-CSS cells assessed as dead cells at 1 uM after 7 days by annexin V-FITC/7-AAD dual staining based cell analysis (reference value: 2.28%); format: functional
[22] = target: Glycogen synthase kinase-3 beta (Homo sapiens, UniProt P49841); assay: Inhibition of GSK3beta (unknown origin) at 1 uM by selectscreen kinase profiling assay in presence of ATP
ANGM-CSS [23] = assay: Reduction of neurosphere formation in human GSC derived from ANGM-CSS cells assessed as decrease in number and diameter of newly generated neurospheres at 1 uM after 9 days by microscopic analysis; format: functional, cell-based
[24] = target: Serine/threonine-protein kinase Chk1 (Homo sapiens) (UniProt O14757); assay: Inhibition of CHEK1 (unknown origin) at 1 uM by selectscreen kinase profiling assay in presence of ATP
[25] = target: Glycogen synthase kinase-3 alpha (Homo sapiens, UniProt P49840); assay: Inhibition of GSK3alpha (unknown origin) at 1 uM by selectscreen kinase profiling assay in presence of ATP
ANGM-CSS [26] = assay: Antiproliferative activity against human GSC derived from ANGM-CSS cells after 7 days by MTS assay; format: functional, cell-based
[27] = target: T1, Cyclin-dependent kinase 5/CDK5 activator 1 (Homo sapiens); assay: Inhibition of CDK5/p25 (unknown origin) at 1 uM by selectscreen kinase profiling assay in presence of ATP; format: protein-complex assay
[28] = target: Rho-associated protein kinase 1 (Homo sapiens) (UniProt Q13464); assay: Inhibition of ROCK1 (unknown origin) at 1 uM by selectscreen kinase profiling assay in presence of ATP
Chain of Rho-associated protein kinase 1 (Homo sapiens) (Q13464 2-1354 limits assumed): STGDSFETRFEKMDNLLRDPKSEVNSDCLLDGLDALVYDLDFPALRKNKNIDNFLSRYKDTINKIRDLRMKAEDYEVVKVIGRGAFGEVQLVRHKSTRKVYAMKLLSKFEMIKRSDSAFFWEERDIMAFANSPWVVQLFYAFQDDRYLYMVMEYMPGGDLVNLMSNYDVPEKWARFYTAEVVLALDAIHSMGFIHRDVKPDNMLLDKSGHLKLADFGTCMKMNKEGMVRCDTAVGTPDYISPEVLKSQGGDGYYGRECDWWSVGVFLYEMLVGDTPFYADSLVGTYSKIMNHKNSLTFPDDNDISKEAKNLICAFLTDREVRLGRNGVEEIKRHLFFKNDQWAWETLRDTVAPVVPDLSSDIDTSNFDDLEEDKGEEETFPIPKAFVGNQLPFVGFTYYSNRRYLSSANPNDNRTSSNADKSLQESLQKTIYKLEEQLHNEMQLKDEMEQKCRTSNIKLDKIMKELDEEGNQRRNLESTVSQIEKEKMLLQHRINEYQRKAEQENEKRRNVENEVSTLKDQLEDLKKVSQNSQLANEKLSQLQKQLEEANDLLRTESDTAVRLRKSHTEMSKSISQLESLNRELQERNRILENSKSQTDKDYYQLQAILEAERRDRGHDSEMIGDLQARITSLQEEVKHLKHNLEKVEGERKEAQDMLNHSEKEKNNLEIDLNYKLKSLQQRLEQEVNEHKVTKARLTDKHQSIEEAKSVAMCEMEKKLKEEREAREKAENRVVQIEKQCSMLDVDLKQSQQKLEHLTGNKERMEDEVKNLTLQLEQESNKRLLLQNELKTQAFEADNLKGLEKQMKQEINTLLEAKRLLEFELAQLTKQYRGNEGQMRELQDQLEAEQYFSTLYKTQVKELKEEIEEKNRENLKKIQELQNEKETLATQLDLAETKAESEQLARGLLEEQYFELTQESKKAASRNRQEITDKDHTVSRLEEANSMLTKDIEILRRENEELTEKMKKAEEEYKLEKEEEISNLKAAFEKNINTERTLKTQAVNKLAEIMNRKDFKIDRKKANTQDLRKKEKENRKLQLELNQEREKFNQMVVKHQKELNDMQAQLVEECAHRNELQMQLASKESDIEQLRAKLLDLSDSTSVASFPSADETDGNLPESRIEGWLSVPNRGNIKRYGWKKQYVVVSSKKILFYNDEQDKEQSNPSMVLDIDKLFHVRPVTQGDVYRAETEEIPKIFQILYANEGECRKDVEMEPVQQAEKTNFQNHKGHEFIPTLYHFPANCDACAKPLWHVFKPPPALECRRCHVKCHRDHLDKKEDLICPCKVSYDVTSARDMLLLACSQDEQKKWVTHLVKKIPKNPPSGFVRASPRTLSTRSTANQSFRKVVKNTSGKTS

T1 sequence (Q00535 whole entry): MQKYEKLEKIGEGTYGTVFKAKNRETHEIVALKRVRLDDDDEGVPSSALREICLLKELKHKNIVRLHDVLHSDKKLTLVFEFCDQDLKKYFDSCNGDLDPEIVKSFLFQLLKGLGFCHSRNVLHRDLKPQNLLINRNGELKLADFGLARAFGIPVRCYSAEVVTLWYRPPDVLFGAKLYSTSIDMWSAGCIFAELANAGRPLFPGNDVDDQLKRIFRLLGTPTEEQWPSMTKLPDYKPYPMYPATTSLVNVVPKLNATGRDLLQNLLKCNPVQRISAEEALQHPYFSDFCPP
T1 sequence (Q15078 99-307 partner limits assumed): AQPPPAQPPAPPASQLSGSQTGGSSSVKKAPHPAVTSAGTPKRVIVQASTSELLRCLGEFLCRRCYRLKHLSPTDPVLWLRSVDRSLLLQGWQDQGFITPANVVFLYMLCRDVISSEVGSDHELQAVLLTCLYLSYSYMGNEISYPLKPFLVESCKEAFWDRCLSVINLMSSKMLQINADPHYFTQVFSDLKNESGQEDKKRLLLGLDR
Chain of Mitogen-activated protein kinase 1 (Homo sapiens) (P28482 whole entry): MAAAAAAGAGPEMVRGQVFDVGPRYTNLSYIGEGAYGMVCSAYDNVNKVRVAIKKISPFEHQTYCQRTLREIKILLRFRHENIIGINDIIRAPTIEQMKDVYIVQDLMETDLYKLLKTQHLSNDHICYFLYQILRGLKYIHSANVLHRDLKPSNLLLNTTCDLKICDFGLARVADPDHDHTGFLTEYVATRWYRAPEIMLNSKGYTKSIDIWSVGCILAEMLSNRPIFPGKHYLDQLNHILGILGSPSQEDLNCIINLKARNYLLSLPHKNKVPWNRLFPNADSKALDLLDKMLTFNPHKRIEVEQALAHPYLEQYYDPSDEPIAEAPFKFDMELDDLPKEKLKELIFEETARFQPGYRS
Chain of Casein kinase II subunit alpha' (Homo sapiens) (P19784 whole entry, looked up): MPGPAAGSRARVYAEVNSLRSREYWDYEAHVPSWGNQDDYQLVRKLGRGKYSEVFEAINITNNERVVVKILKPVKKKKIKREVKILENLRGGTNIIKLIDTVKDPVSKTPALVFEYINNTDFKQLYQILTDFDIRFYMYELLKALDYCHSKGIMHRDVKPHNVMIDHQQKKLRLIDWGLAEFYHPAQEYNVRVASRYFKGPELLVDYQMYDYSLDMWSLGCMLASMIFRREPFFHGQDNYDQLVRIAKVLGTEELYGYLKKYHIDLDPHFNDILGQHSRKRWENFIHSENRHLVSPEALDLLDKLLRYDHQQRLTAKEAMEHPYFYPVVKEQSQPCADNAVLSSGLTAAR
Chain of Tyrosine-protein kinase ABL1 (Homo sapiens) (P00519 whole entry): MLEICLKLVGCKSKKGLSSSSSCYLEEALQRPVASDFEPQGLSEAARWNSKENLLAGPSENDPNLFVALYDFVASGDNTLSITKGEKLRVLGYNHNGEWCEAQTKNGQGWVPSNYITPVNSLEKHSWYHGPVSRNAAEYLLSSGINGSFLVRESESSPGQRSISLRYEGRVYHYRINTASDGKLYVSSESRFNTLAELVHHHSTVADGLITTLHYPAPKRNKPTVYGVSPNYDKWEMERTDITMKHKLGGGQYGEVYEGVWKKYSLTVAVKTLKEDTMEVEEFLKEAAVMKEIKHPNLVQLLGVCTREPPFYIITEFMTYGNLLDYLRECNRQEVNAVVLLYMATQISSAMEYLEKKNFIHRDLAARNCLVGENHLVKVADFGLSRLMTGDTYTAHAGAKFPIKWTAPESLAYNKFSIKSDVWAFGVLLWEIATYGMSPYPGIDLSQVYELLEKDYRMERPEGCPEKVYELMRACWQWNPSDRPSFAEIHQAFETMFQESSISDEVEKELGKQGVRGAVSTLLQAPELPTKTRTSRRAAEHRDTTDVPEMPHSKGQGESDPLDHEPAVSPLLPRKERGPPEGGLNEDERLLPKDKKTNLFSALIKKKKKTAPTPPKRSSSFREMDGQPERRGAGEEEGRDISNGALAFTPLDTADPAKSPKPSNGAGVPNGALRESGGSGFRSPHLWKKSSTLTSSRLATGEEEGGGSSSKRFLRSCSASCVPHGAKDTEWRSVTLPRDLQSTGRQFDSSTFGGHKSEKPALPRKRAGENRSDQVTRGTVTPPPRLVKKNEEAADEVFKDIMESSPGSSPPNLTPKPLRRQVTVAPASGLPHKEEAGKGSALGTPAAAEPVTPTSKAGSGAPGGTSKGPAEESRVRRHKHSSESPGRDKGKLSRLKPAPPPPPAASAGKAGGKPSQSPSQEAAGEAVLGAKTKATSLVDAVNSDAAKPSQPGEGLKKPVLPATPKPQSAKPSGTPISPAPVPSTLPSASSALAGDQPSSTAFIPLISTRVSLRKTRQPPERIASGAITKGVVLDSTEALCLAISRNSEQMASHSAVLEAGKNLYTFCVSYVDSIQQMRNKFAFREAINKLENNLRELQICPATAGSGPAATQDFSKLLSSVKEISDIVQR
Chain of Dual specificity protein kinase CLK1 (Homo sapiens) (P49759 whole entry, looked up): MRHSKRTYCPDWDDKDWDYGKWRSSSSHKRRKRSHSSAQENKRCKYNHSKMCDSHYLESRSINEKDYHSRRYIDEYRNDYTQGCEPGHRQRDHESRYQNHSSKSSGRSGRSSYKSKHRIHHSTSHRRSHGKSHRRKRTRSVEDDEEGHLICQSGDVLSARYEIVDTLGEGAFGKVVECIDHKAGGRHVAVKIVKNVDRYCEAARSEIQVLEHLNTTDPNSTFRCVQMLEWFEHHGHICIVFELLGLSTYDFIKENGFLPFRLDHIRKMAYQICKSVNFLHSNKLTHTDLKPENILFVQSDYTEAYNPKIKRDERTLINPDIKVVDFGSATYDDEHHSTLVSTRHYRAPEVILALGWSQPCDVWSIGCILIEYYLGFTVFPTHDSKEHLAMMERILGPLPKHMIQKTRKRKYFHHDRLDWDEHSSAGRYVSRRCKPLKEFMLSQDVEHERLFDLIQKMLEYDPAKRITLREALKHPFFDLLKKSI
Chain of Glycogen synthase kinase-3 alpha (P49840 2-483 limits assumed): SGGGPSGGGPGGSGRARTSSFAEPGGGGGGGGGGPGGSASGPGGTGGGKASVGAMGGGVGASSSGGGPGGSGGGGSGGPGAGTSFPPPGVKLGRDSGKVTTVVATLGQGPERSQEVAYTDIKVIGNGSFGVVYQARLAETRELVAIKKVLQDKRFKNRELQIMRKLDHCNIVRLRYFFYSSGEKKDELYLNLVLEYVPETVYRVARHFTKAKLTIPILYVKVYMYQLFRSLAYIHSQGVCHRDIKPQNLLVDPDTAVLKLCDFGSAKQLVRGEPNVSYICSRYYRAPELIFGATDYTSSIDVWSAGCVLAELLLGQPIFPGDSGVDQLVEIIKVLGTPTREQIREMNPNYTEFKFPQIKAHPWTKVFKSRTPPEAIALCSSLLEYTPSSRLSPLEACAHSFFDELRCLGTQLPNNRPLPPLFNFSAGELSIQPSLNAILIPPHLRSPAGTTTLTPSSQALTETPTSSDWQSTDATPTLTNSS
Chain of Mitogen-activated protein kinase 14 (Homo sapiens) (Q16539 whole entry): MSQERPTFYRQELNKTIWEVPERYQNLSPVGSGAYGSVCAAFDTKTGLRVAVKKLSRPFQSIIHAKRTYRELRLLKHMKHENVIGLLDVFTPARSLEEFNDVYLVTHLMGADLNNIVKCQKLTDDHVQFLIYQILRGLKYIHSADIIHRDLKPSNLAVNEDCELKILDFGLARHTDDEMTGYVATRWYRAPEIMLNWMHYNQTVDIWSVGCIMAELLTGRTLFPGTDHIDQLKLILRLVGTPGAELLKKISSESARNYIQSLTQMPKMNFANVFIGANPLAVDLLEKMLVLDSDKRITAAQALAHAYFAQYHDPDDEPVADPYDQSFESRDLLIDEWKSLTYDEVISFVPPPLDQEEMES

Compound: COc1cc2c(cc1OC)CN(CC(=O)Nc1ccc3c(c1)/C(=C/c1cnc[nH]1)C(=O)N3)CC2
- GI50 [1]: 3.98 µM
- inhibition [2]: 26%
- inhibition [3]: 9%
- inhibition [4]: 40%
- GI50 [5]: 14.6 µM
- inhibition [6]: 11%
- inhibition [7]: 4%
- IC50 [8]: 0.274 µM
- inhibition [9]: 1%
- Activity (ANGM-CSS [10]): Active
- Activity [11]: 81.32%
- Activity [12]: 17.2%
- growth inhibition (GI) (U-118-MG): Dose-dependent effect
- IC50 [13]: 0.98 µM
- inhibition [14]: inactive
- inhibition [15]: 30%
- inhibition [16]: 55%
- Activity (ANGM-CSS [17]): Active
- inhibition [18]: 8%
- inhibition [19]: 25%
- Activity [20]: 11.87%
- Activity [21]: 1.74%
- inhibition [22]: 70%
- Activity (ANGM-CSS [23]): Active
- inhibition [24]: 61%
- inhibition [25]: 59%
- inhibition (ANGM-CSS [26]): Dose-dependent effect
- inhibition [27]: 45%
- inhibition [28]: 8%
